In US5043332A, “Novel 11β-substituted -19-nor-steriods” (priority 1981, dated 1991):

Tests used:
[1] = tested on: thymocytes of surrenalectomized rats; assay: Antiglucocorticoidal activity, incorporation of tritiated uridine in thymocytes; format: cell-based; conditions: for % inhibition of effect of Dexamethasone (symbol): 5 × 10^-8 M dexamethasone + test product 10^-6 M; for inhibition at 0.1 µM / inhibition at 0.01 µM: Rattus norvegicus, Thymocyte, read-out: % inhibition of effect of Dexamethasone; for inhibition at 0.1 µM: 5 × 10^-8 M dexamethasone + test product 10^-7 M; for inhibition at 0.01 µM: 5 × 10^-8 M dexamethasone + test product 10^-8 M; for opposition to the effect of dexamethasone on tritiated uridine incorporation (in words): with 5×10^-8 M dexamethasone
Experimental: III. Antiglucocorticoidal Activity
The test used was that of Dausse et al [Molecular Pharmacology, Vol. 13 (1977), p. 948-955] entitled "The relationship between glucocorticoid structure and effects upon thymocytes" for […] thymocytes. The thymocytes of surrenalectomized rats were incubated at 37° C. for 3 hours in a nutritive medium containing 5×10^-8 M of dexamethasone in the presence or absence of the test compound at different concentrations. Tritiated uridine was added and incubation was continued for one hour. The incubates were cooled and treated with a 5% trifluoroacetic acid solution and the mixture was filtered with Whatman GF/A paper. The filter was washed 3 times with a 5% trifluoroacetic acid solution and retained radioactivity on the filter was determined.

[2] = target: T1, Gluocorticoid receptor of thymus of rats (Rattus norvegicus, UniProt P06536); assay: Glucocorticoid receptor binding (displacement of tritiated dexamethasone)
T1 construct: The thymus were removed and homogenized at 0° C; from tissue; host or cells: rat thymus, 105,000 g supernatant (adrenalectomized male Sprague-Dawley rats)
T1 sequence (P06536 1-795): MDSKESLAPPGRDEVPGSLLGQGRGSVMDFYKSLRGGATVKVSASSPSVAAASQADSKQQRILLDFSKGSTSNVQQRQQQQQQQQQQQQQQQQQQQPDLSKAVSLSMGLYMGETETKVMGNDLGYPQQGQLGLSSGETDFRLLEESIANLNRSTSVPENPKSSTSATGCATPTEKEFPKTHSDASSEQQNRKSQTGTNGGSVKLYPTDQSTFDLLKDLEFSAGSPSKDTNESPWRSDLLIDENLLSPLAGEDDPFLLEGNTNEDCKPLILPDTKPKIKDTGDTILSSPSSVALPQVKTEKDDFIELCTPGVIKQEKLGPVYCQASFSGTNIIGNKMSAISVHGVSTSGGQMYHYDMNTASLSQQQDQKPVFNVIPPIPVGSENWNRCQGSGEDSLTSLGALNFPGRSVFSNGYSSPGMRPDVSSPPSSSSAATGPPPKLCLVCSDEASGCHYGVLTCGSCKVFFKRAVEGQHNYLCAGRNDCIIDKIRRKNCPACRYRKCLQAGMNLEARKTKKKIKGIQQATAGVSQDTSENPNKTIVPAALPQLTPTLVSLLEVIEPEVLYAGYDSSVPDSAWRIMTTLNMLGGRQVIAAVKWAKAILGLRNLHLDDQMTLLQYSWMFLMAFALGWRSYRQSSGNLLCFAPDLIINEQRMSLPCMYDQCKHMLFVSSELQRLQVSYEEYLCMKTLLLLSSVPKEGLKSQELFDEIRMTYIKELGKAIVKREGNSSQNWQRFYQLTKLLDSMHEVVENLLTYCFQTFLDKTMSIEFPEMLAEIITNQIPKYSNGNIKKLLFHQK
Experimental: D. Gluocorticoid receptor of thymus of rats
Male Sprague-Dawley EPOS rats weighing 160 to 200 g were surrenalectomized and the animals were killed 4 to 8 days later. The thymus were removed and homogenized at 0° C. in a buffered TS solution of 10 mM, Tris, 0.25M of Saccharose, 2 mM of dithiothreitol HCl for a pH of 7.4 using a polytetrafluoroethylene-glass Potter at a rate of 1 g of tissue per 10 ml of TS. […] The concentration of tied tritiated dexamethasone (B) was measured for each incubate by the adsorption on carbon-dextran technique.
The calculation of the relative affinity of […] (ARL) was identical for all of the above receptor tests. One traced the following two curves: the percentage of tied tritiated hormone B/T as a function of the logarithm of the cold hormone concentration and B/T as a function of the logarithm of the concentration of the cold test product. One determined the line of the equation. [formula]
The intersection of the I50 line and the curves permits one to determine the concentrations of the cold hormone of the reference (CH) and the cold test compound (CX) which inhibit by 50% the tieing of tritiated hormone with the receptor. The relative affinity of tieing (ARL) of the test product was determined by the equation: [formula]

SMILES | % inhibition of effect of Dexamethasone (symbol) [1] | inhibition at 0.1 µM [1] [%] | inhibition at 0.01 µM [1] [%] | opposition to the effect of dexamethasone on tritiated uridine incorporation (in words) [1] | relative affinity of tieing (ARL), Glucocorticoid ([2]; incubation 4 H at 0° C.) | relative affinity of tieing (ARL), Glucocorticoid ([2]; incubation 24 H at 0° C.) | affinity for glucocorticoid receptors (in words) ([2]; conclusion)
CC#C[C@]1(O)CC[C@H]2[C@@H]3CCC4=CC(=O)C(C)(C)CC4=C3[C@@H](c3ccc(N(C)C)cc3)C[C@@]21C [Example 1, 2,2-dimethyl-11β-(4-dimethylaminophenyl)-17α-(prop-1-ynyl)-Δ^4,9-estradiene-17β-ol-3-one] | * (A dose of 10^-6 M inhibited the effect of dexamethasone totally) | 18 | 8 | opposed this effect | 97 | 38 | –
CC#C[C@]1(O)CC[C@H]2[C@@H]3CCC4=CC(=O)CCC4=C3[C@@H](c3ccc(N(C)C)cc3)C[C@@]21C [Example 19, 11β-[4-(N,N-dimethylamino)-phenyl]-17α-(prop-1-ynyl)-Δ^4,9-estradiene-17β-ol-3-one] | – | – | – | opposed this effect | – | – | very remarkable affinity
CC#C[C@]1(O)CC[C@H]2[C@@H]3CCC4=C(CCC(=O)C4)[C@H]3[C@@H](c3ccc(N(C)C)cc3)C[C@@]21C [Example 10, 11β-(4-dimethylaminophenyl)-17α-(prop-1-ynyl)-Δ^5(10) -estrene-17β-ol-3-one] | * (A dose of 10^-6 M inhibited the effect of dexamethasone totally) | 23 | 0 | opposed this effect | 83 | 115 | –
